Laboratory results reported in patent US20110071100A1, “SULFOBETAINES FOR CANCER, OBESITY, MACULAR DEGENERATION, NEURODEGENERATIVE DISEASES” (TILTAN PHARMA LTD., priority 2008, published 2011).

Test system: malignant (mammary carcinoma) tumor (EMT6/CTX)
Assay: Tumor growth of malignant (mammary carcinoma) tumor (EMT6/CTX) in a mouse experimental model
Format: in vivo, CB6F1 male mice
Conditions: for effect on tumor growth, agent alone: i.p.; for inhibition of tumor growth, alone and in combination with Hamsa treatment (summary of experiments 1-4): SB-18 and CHAPS 40 mg/kg, SB-12 2.5 and 40 mg/kg
Procedure: In order to determine the effect of SB-18, CHAPS, SB-12, SB-16-4 and SB-18-4 each alone and each in combination with 4 other agents (“Hamsa treatment”), on tumor growth of a malignant (mammary carcinoma) tumor (EMT6/CTX) in a mouse experimental model, six (6) experiments were carried out as described below:
CB6F1 male mice (a cross between Balbc and C57bl) at age of 7-8 weeks were anesthetized with Ketamine:Xelazine in a 0.85:0.15 ratio respectively, and diluted 1:1 with double distilled water (DDW) and injected i.m. in volume of 50 uL.
100 uL of EMT6/CTX cells 3.6×10^5 cells/mouse were injected subcutaneously (s.c.) to the anesthetized mice, after shaving their back (to enable accurate measurement of tumor-volume). The mice were divided into four groups, as outlined below, 6-8 animals in each group. The mice were marked with Picric acid on head (H), tail (T), head and tail (H&T), right leg (RL), left leg (LL), right and left legs (SY), back and blank and were individually monitored.
“Hamsa treatment” as used herein consists of the following active ingredients in the following concentrations: • Cimetidine 60 mg/kg (Farchemia s.r.l. Italy). • Diclofenac 30 mg/kg (Unique Pharma India). • Cyclophosphamide (CTX) 60 mg/kg (Hisun China) • Sulfasalazine (SSZ) (Farchemia s.r.l. Italy)—50 mg/kg on days of cytotoxic treatment, i.e. on days when cyclophosphamide and diclofenac are administered; 150 mg/kg on days of non-cytotoxic treatment, i.e. on days when no cyclophosphamide and disclofenac are administered.
The preparation and administration protocol of the Hamsa treatment is outlined in Table 1:
SB-12, CHAPS and SB-18 (HOPAX Chem. Mfg. Ltd Taiwan) were prepared separately as aqueous solutions, then mixed 1:1 with Vehicle or the cytotoxic or non-cytotoxic stage of the Hamsa treatment and twice the volume was injected i.p. Due to its lower solubility, SB-18 was dissolved by mild warming (˜45° C.) of its aqueous solution in the presence of 2% Solutol HS-15 (BASF-Germany). In groups that received SB-12, CHAPS or SB-18, this agent was injected daily. […]
SB-16-4 was first dissolved in DDW containing 2% Solutol HS-15 with heating to 40° C. to 8 mg/mL concentration. The stock solution was diluted with non-cytotoxic and cytotoxic treatments in 1:1 ratio.
SB-18-4 was first dissolved in DDW containing 4% Solutol HS-15 with heating to 40° C. to 8 mg/mL concentration. The stock solution was diluted with non-cytotoxic and cytotoxic treatments in 1:1 ratio
• 1. 7 mice received vehicle (DDW+2% Solutol—BASF, Germany) • 2. 8 mice received Hamsa treatment • 3. 8 mice received Hamsa treatment in combination with SB-18 (40 mg/kg). • 4. 6 mice received SB-18 in vehicle (40 mg/kg)
• 1. 7 mice received vehicle (DDW+2% Solutol—BASF, Germany) • 2. 8 mice received Hamsa treatment • 3. 7 mice received Hamsa treatment in combination with CHAPS (40 mg/kg). • 4. 7 mice received CHAPS in vehicle (40 mg/kg)
• 1. 7 mice received vehicle (DDW+2% Solutol—BASF, Germany) • 2. 6 mice received Hamsa treatment. • 3. 7 mice received Hamsa treatment with SB-12 (2.5 mg/kg). • 4. 7 mice received SB-12 in vehicle (2.5 mg/kg)
• 1. 7 mice received vehicle (DDW+2% Solutol—BASF, Germany) • 2. 7 mice received Hamsa treatment • 3. 7 mice received Hamsa treatment with SB-12 (40 mg/kg).
• 1. 6 mice received vehicle (DDW+2% Solutol—BASF, Germany) • 2. 6 mice received Hamsa treatment • 3. 7 mice received Hamsa treatment in combination with SB-16-4 (40 mg/kg). • 4. 5 mice received SB-16-4 in vehicle (40 mg/kg)
• 1. 7 mice received vehicle (DDW+2% Solutol—BASF, Germany) • 2. 8 mice received Hamsa treatment • 3. 7 mice received Hamsa treatment in combination with SB-18-4 (40 mg/kg). • 4. 7 mice received SB-18-4 in vehicle (40 mg/kg)
Five (5) or six (6) days after inoculation, when the tumor is already palpable, the treatment was initiated by intraperitoneally (i.p.) injection of the indicated treatment, in a volume of 250 uL, once a day, every day, 6 days a week. […]

[1] = 40 mg/kg i.p. daily + Hamsa treatment (cimetidine, sulfasalazine, diclofenac, cyclophosphamide)
[2] = 40 mg/kg in vehicle, daily, s.c. EMT6/CTX tumor, tumor volume by caliper

Row | Compound | effect on tumor growth in combination with Hamsa treatment [1] | effect on tumor growth, agent alone [2] | inhibition of tumor growth, alone and in combination with Hamsa treatment (summary of experiments 1-4) | effect on tumor growth in combination with Hamsa treatment (2.5 mg/kg i.p. daily + Hamsa treatment (low dose)) | effect on tumor growth, agent alone (2.5 mg/kg in vehicle, daily (low dose))
1 | CC(CCC(=O)NCCC[N+](C)(C)CCCS(=O)(=O)[O-])C1CCC2C3C(O)CC4CC(O)CCC4(C)C3CC(O)C12C (centres unmarked) [CHAPS, 3-[3-(Cholamidopropyl)dimethylamonio]-1-propanesulfonate] | has a synergistic effect | has an anti-tumor effect | inhibited tumor growth |  | 
2 | CCCCCCCCCCCC[N+](C)(C)CCCS(=O)(=O)[O-] [SB-12, N-Dodecyl-N,N-Dimethyl-3-Ammonio-1-Propane Sulfonate, reference compound] | compromises the anti-tumor effect of Hamsa treatment |  | did not | slightly compromises the anti-tumor effect of the Hamsa treatment | does not inhibit tumor growth, but rather enhances tumor-growth
3 | CCCCCCCCCCCCCCCC[N+](C)(C)CCCCS(=O)(=O)[O-] [SB-16-4, N,N-Dimethylhexadecyl-ammonium-1-(4-butylsulfonate)] | has a synergistic effect | has an anti-tumor effect |  |  | 
4 | CCCCCCCCCCCCCCCCCC[N+](C)(C)CCCS(=O)(=O)[O-] [SB-18, N-Octadecyl-N,N-Dimethyl-3-Ammonio-1-Propane Sulfonate] | has a synergistic effect | has an anti-tumor effect | inhibited tumor growth |  | 
5 | CCCCCCCCCCCCCCCCCC[N+](C)(C)CCCCS(=O)(=O)[O-] [SB-18-4, N,N-Dimethyloctadecyl-ammonium-1-(4-butylsulfonate)] | has a synergistic effect | has an anti-tumor effect |  |  | 
